In the Deep4Chem optical property database:
Where “and” joins values, the source holds several entries; their conditions need not be identical. Equal values may be shown once.

Assay: solvent given as SMILES

In the case of `Cc1cc(C)c(B(c2c(C)cc(C)cc2C)c2cc3ccc4ccccc4c3c3c2cc(N(C)C)c2ccccc23)c(C)c1`, the emission maximum (in C1CCCCC1) is reported as 554 nm, the emission maximum (in C1CCOC1) is reported as 601 nm and the emission maximum (in CC#N) is reported as 613 nm. It also gave an emission maximum (in ClC(Cl)Cl) of 585 nm and an emission maximum (in c1ccccc1) of 582 nm.

`CN1C(=CC2=C([O-])C(=CC3=[N+](C)c4ccccc4C3(C)C)C2=C(C#N)C#N)C(C)(C)c2ccccc21` showed an emission maximum (in ClC(Cl)Cl) of 700 nm.

In the case of `CC1(C)C(/C=C/C=C/c2cc3ccc(O)cc3oc2=O)=[N+](CCCS(=O)(=O)[O-])c2ccccc21`, the emission maximum (in CS(C)=O) is reported as 653 nm and the emission maximum (in O) is reported as 720 nm.

Work on `COc1ccc(C2=Cc3ccccc3P2(=O)c2ccccc2)cc1` (configuration not stated) yielded an emission maximum (in C1CCOC1) of 443 nm and an emission maximum (in ClCCl) of 454 nm.

Molecule `CN(C)c1ccc(/C=C/c2nc3ccccc3s2)cc1` has an emission maximum (in C1CCCCC1) of 447 nm, an emission maximum (in C1CCOC1) of 482 nm and an emission maximum (in C1COCCO1) of 467 nm. It also gave an emission maximum (in CC#N) of 504 nm, an emission maximum (in CC(C)O) of 493 nm and an emission maximum (in CCCCCC) of 445 nm. For the same molecule, the emission maximum (in CCCCCCC) was 446 nm, the emission maximum (in CCO) was 498 nm and the emission maximum (in CCOC(C)=O) was 477 nm. The emission maximum (in CCOCC) was 460 nm, the emission maximum (in CN(C)C=O) was 504 nm and the emission maximum (in CO) was 507 nm. For the same molecule, the emission maximum (in CS(C)=O) was 513 nm, the emission maximum (in O) was 516 nm and the emission maximum (in OCC(O)CO) was 530 nm.

In the case of `Cc1ccc(C2=[N+]3C(=Cc4ccc(C)n4[B-]3(F)F)c3ccccc32)[nH]1`, the emission maximum (in C1CCOC1) is reported as 621 nm, the emission maximum (in CC#N) is reported as 620 nm and the emission maximum (in CCCCCC) is reported as 613 nm. It also gave an emission maximum (in CO) of 616 nm, an emission maximum (in Cc1ccccc1) of 623 nm and an emission maximum (in ClCCl) of 624 nm.

Work on `F[B-]1(F)OC(c2ccc3ccccc3c2)=CC(c2ccc3ccccc3c2)=[O+]1` yielded an emission maximum (in CC#N) of 510 nm and an emission maximum (in ClC(Cl)(Cl)Cl) of 428 nm.

For `c1ccc(N(c2ccccc2)c2ccc(-c3ccc(-c4ccc(-c5cccs5)c5nsnc45)s3)cc2)cc1`, the emission maximum (in ClC(Cl)Cl) was 670 nm.

Work on `COC(=O)/C(C#N)=c1\s/c(=c2/s/c(=C(/C#N)C(=O)OC)c3cc(-c4ccccc4)sc23)c2sc(-c3ccccc3)cc12` yielded an emission maximum (in Cc1ccccc1) of 640 nm.

Work on `COC(=O)CNC(=O)c1nc2c(N(C)C)nc(N(C)C)nc2n1Cc1ccccc1` yielded an emission maximum (in C1COCCO1) of 397 nm, an emission maximum (in CC#N) of 409 nm and an emission maximum (in CO) of 429 nm. The emission maximum (in ClCCl) was 407 nm.

`O=c1cc2c(Br)c(O)c3cccc4ccc(o1)c2c43` gave an emission maximum (in CC1CCCO1) of 484 nm.

`Oc1ccc(/N=C/c2ccccc2Oc2ccccc2)cc1` gave an emission maximum (in C1CCCCC1) of 410 nm, an emission maximum (in C1COCCO1) of 414 nm and an emission maximum (in CC#N) of 424 nm. It also gave an emission maximum (in CC(C)=O) of 423 nm, an emission maximum (in CC(C)CO) of 410 nm and an emission maximum (in CCCCC) of 410 nm. It also gave an emission maximum (in CCCCCC) of 428 nm, an emission maximum (in CCCCCCCCO) of 420 nm and an emission maximum (in CCCCCCCO) of 413 nm. It also gave an emission maximum (in CCCCCCO) of 413 nm, an emission maximum (in CCCCO) of 419 nm and an emission maximum (in CCCCOC(C)=O) of 410 nm. The emission maximum (in CCCO) was 415 nm, the emission maximum (in CCO) was 415 nm and the emission maximum (in CCOC(C)=O) was 412 nm. It also gave an emission maximum (in CCOCC) of 427 nm, an emission maximum (in CN(C)C=O) of 423 nm and an emission maximum (in CO) of 415 nm. It also gave an emission maximum (in CS(C)=O) of 418 nm, an emission maximum (in Cc1ccccc1) of 410 nm and an emission maximum (in Cc1ccccc1C) of 414 nm. It also gave an emission maximum (in ClC(Cl)Cl) of 415 nm, an emission maximum (in ClCCl) of 414 nm and an emission maximum (in OCCO) of 405 nm. It also gave an emission maximum (in c1ccccc1) of 414 nm.

`CC1(C)C2=[N+](CCCCCC(=O)NCCCNC(=O)CCCCCN3/C(=C/C=C/C=C/C=C/2)C(C)(C)c2cc(S(=O)(=O)[O-])ccc23)c2ccc(S(=O)(=O)[O-])cc21` gave an emission maximum (in CO) of 776 nm and an emission maximum (in O) of 768 nm.

Molecule `CN1C(=CC2=C([O-])C(=Cc3oc4ccccc4[n+]3C)C2=C(C#N)C#N)C(C)(C)c2ccccc21` has an emission maximum (in ClC(Cl)Cl) of 673 nm.

In the case of `Cc1ccc(C2=C3C=CC(C#Cc4ccccc4)=[N+]3[B-](F)(F)n3c(Cl)ccc32)cc1`, the emission maximum (in C1CCCCC1) is reported as 575 nm, the emission maximum (in C1CCOC1) is reported as 573 nm and the emission maximum (in C1COCCO1) is reported as 575 nm. It also gave an emission maximum (in CCOC(C)=O) of 571 nm, an emission maximum (in CO) of 569 nm and an emission maximum (in Cc1ccccc1) of 577 nm. For the same molecule, the emission maximum (in ClC(Cl)Cl) was 577 nm.

For `O=C1/C(=C2\Sc3ccc(S(=O)(=O)O)cc3C2=O)Sc2ccc(S(=O)(=O)O)cc21`, the emission maximum (in C1COCCO1) was 587 nm, the emission maximum (in CN(C)C=O) was 613 nm and the emission maximum (in CO) was 629 nm. The emission maximum (in CS(C)=O) was 629 nm and the emission maximum (in O) was 644 nm.

Molecule `N[C@@H](Cn1nnc2cc(-c3ccc(-c4ccsc4)cc3)ccc21)C(=O)O` has an emission maximum (in CO) of 384 nm.

With `CN(c1ccccc1)c1ccc(N(c2ccccc2)c2ccc3ccc4c(N(c5ccccc5)c5ccc(N(C)c6ccccc6)cc5)ccc5ccc2c3c54)cc1` the emission maximum (in ClCCl) was 620 nm.

For `Cc1ccc(O)c(-c2[nH]c(=O)n3c2-c2ccccc2C3=O)c1`, the emission maximum (in CC#N) was 480 nm, the emission maximum (in CO) was 500 nm and the emission maximum (in ClCCl) was 475 nm.

`c1ccc(-n2c(-c3ccc(-c4ccc5c(c4)C4(c6ccccc6-c6ccccc64)c4cc(-c6ccc(-c7nc8ccccc8n7-c7ccccc7)cc6)c6ccccc6c4-5)cc3)nc3ccccc32)cc1` showed an emission maximum (in ClC(Cl)Cl) of 440 nm.

Molecule `COc1cc2c3cc(OC)c(OC)cc3c3cc4c(C)cc(=O)oc4cc3c2cc1OC` has an emission maximum (in C1CCOC1) of 489 nm, an emission maximum (in CO) of 556 nm and an emission maximum (in CS(C)=O) of 519 nm. It also gave an emission maximum (in Cc1ccccc1) of 463 nm and an emission maximum (in ClC(Cl)Cl) of 491 nm.

For `CCN(CC)c1ccc2cc(-c3csc(N)c3C#N)c(=O)oc2c1`, the emission maximum (in C1CCOC1) was 458 nm, the emission maximum (in CO) was 514 nm and the emission maximum (in CS(C)=O) was 482 nm. The emission maximum (in Cc1ccccc1) was 447 nm and the emission maximum (in ClCCl) was 464 nm.

Molecule `CC1=[N+]2C(=C(c3ccccc3)c3c4ccccc4c(C)n3[B-]2(F)F)c2ccccc21` has an emission maximum (in CC#N) of 606 nm.

Work on `c1ccc(-c2ccc(-c3ccc(-n4c5ccccc5c5ccccc54)cc3)c3nsnc23)cc1` yielded an emission maximum (in C1CCOC1) of 527 nm, an emission maximum (in CC(C)=O) of 562 nm and an emission maximum (in CCCCCC) of 481 nm. The emission maximum (in CCOCC) was 504 nm.

`c1ccc2c(-c3ccc4sc5ccccc5c4c3)c3ccccc3cc2c1` gave an emission maximum (in C1CCCCC1) of 399.14 nm, an emission maximum (in CC#N) of 404.15 nm and an emission maximum (in ClCCl) of 405.52 nm.

Work on `CC1=CC(/C=C/c2ccc(N(C)C)cc2)=[N+]2C1=C(c1ccccc1)c1c(C)cc(/C=C/c3ccc(N(C)C)cc3)n1[B-]2(F)F` yielded an emission maximum (in ClC(Cl)Cl) of 753 nm.

`Cc1ccc(/C2=c3\cc/c(o3)=C(\c3ccc(C)cc3)c3ccc([nH]3)-c3ccc4n3[P-](=O)(=O)[N+]3=C(C=CC3=C4c3ccco3)c3ccc2[nH]3)cc1` showed an emission maximum (in ClC(Cl)Cl) of 744 nm.

For `COc1ccc(/C=C2\OC(=O)c3ccccc32)cc1`, the emission maximum (in CC#N) was 456.2 nm and 446 nm, the emission maximum (in CC(C)=O) was 452.49 nm and the emission maximum (in CC(C)CO) was 451.88 nm. For the same molecule, the emission maximum (in CC(C)O) was 459.77 nm, the emission maximum (in CCCO) was 460.83 nm and the emission maximum (in CCO) was 459.35 nm. The emission maximum (in CCOC(C)=O) was 438.6 nm, the emission maximum (in CCOCC) was 434.03 nm and the emission maximum (in CO) was 459.35 nm.

Molecule `COc1cccc2cc(C)c3c4ccccc4[nH]c3c12` has an emission maximum (in ClCCl) of 365 nm.

With `O=c1oc2ccccc2c2c1c(=O)oc1cc(O)ccc12` the emission maximum (in ClCCl) was 455 nm.

In the case of `O=C(c1ccc2c3c(cccc13)-c1cccc3c1C2CC=C3)c1c(Cc2ccccc2)c2ccc3cccc4c5cccc6ccc1c(c65)c2c34` (configuration not stated), the emission maximum (in ClCCl) is reported as 528 nm.

Work on `Cc1cc(N2c3ccccc3[Si](c3ccccc3)(c3ccccc3)c3ccccc32)c(C)cc1-c1nc(-c2ccccc2)nc(-c2ccccc2)n1` yielded an emission maximum (in Cc1ccccc1) of 465 nm and an emission maximum (in O=P(c1ccccc1)(c1ccccc1)c1ccccc1Oc1ccccc1P(=O)(c1ccccc1)c1ccccc1) of 465 nm.

Molecule `O=S(=O)(c1cccc(N2c3ccccc3Sc3ccccc32)c1)c1cccc(N2c3ccccc3Sc3ccccc32)c1` has an emission maximum (in C1CCOC1) of 596 nm, an emission maximum (in CCCCC(CC)n1c2ccc(-n3c4ccccc4c4ccccc43)cc2c2cc(-n3c4ccccc4c4ccccc43)ccc21) of 554.57 nm and an emission maximum (in Cc1ccccc1) of 561 nm. It also gave an emission maximum (in ClC(Cl)Cl) of 579 nm and an emission maximum (in c1cc(-n2c3ccccc3c3ccccc32)cc(-n2c3ccccc3c3ccccc32)c1) of 550.83 nm.

Work on `c1ccc(-n2c(-c3ccc([Si](c4ccc(-c5nc6ccccc6n5-c5ccccc5)cc4)(c4ccc(-c5nc6ccccc6n5-c5ccccc5)cc4)c4ccc(-c5nc6ccccc6n5-c5ccccc5)cc4)cc3)nc3ccccc32)cc1` yielded an emission maximum (in ClCCl) of 363 nm.

`Cc1ccc(-c2ccc(/C=C/c3ccc(F)cc3)cn2)nc1` showed an emission maximum (in CC#N) of 391 nm.

For `c1cncc(-c2ccc(-c3c4ccc(-c5cccnc5)cc4c(-c4ccc(-c5cccnc5)cc4)c4ccc(-c5cccnc5)cc34)cc2)c1`, the emission maximum (in ClCCl) was 443 nm.

`CN1CCN(CCCN2c3ccccc3Sc3ccc(Cl)cc32)CC1` showed an emission maximum (in CC#N) of 449 nm, an emission maximum (in CO) of 449 nm and an emission maximum (in O) of 457 nm.

Work on `CC(C)(C)c1ccc(-c2ccc3c(-c4ccc(C(C)(C)C)c5ccccc45)cc4c5cc(-c6ccc(C(C)(C)C)c7ccccc67)ccc5c(-c5ccc(C(C)(C)C)c6ccccc56)cc4c3c2)c2ccccc12` yielded an emission maximum (in ClCCl) of 405 nm.

Work on `CCCN1C(=O)c2c3c(c4c(c2C1=O)CCc1cc(-c2ccc(N(C)C)cc2)c(OC)cc1-4)-c1cc(OC)c(-c2ccc(N(C)C)cc2)cc1CC3` yielded an emission maximum (in C1CCCCC1) of 511 nm, an emission maximum (in C1CCOC1) of 602 nm and an emission maximum (in CCOC(C)=O) of 598 nm. It also gave an emission maximum (in Cc1ccccc1) of 548 nm and an emission maximum (in ClCCl) of 613 nm.

Molecule `CC(=O)c1ccc2ccc3cccc4ccc1c2c34` has an emission maximum (in C1CCOC1) of 387 nm, an emission maximum (in CC#N) of 390 nm and an emission maximum (in CCCCCC) of 387 nm. It also gave an emission maximum (in CCO) of 436 nm, an emission maximum (in CN(C)C=O) of 392 nm and an emission maximum (in CO) of 443 nm. It also gave an emission maximum (in Cc1ccccc1) of 392 nm and an emission maximum (in ClCCl) of 396 nm.

In the case of `C[Si](C)(C)C#CC(C#C[Si](C)(C)C)=Cc1ccc(C=C(C#C[Si](C)(C)C)C#C[Si](C)(C)C)s1`, the emission maximum (in ClC(Cl)Cl) is reported as 475 nm.

`COc1cc2oc(=O)c3c4ccc(C=O)cc4c4ccc5cccc6c(c1)c2c3c4c56` gave an emission maximum (in C1CCOC1) of 442 nm.
